Each structure is given as a SMILES string.

Among the data in BindingDB's records for doi:10.1016/j.bioorg.2017.05.009 (Kinnaird College for Women, 2017) are IC50 values, retold here.

Chain of Alpha-glucosidase MAL32 (P38158 whole entry): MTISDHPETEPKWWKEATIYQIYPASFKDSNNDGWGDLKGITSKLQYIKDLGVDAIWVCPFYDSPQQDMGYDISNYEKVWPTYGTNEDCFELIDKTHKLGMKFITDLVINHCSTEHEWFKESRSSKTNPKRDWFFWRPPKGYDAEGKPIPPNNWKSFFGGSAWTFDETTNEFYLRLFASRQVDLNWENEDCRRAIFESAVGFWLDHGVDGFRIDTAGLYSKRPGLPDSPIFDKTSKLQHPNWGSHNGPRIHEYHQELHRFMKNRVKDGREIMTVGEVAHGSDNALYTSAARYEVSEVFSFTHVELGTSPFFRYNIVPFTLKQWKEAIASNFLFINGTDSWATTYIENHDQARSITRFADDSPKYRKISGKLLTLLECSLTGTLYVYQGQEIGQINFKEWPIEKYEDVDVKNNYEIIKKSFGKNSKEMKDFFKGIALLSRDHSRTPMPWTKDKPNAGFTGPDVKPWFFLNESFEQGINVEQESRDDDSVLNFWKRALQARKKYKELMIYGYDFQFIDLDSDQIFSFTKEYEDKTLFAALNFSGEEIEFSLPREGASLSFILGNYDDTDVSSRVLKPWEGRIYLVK

For this test, the target named is Alpha-glucosidase MAL32 (Saccharomyces cerevisiae, UniProt P38158). The test is described as follows: α-Glucosidase Inhibition Assay. Conditions: pH 6.8; 37 °C. How it is done:
For α-glucosidase inhibition assay, α-glucosidase enzyme (Cat No. 5003-1KU Type I; isolated from Saccharomyces cereviciae) was used. Acarbose was the reference standard and Pierre's methodology was employed [Pierre et al., J. Clin. Chem., 24:208-211]. First absorbance was taken at 400 nm after the 10 min incubation of a mixture of phosphate buffer ([…], pH 6.8), test compound ([…], 0.5 mM) and enzyme ([…], 0.0234 units, Sigma Inc.). Later, […] of p-nitrophenyl-α-D-glucopyranoside (0.5 mM, code No. N1377 from Sigma Inc) was added. After 30 min incubation at 37 °C, the absorbance was retaken at 400 nm.
Take `O=C1OC2C=CC=CC2C=C1c1nn(-c2ccccc2)cc1-c1nc(-c2ccccc2)c(-c2ccccc2)n1-c1ccc(Cl)cc1` (stereo not given) [3-(4-(1-(4-Chlorophenyl)-4,5-diphenyl-1H-imidazol-2-yl)-1-phenyl-1H-pyrazol-3-yl)-4a,8a-dihydro-2H-chromen-2-one (3a)]: the half-inhibitory concentration (IC50) (commonly the point on the concentration scale where inhibition reaches its midpoint) was 12.7 µM.

Compound `O=C1OC2C=CC=CC2C=C1c1nn(-c2ccccc2)cc1-c1nc(-c2ccccc2)c(-c2ccccc2)n1-c1ccc(Br)cc1` (stereo not given) [3-(4-(1-(4-Bromophenyl)-4,5-diphenyl-1H-imidazol-2-yl)-1-phenyl-1H-pyrazol-3-yl)-4a,8a-dihydro-2H-chromen-2-one (3b)] displayed an IC50 of 34.3 µM.

`Cc1ccc(-n2c(-c3cn(-c4ccccc4)nc3-c3cc4cc(Br)ccc4oc3=O)nc(-c3ccccc3)c2-c2ccccc2)cc1` [6-Bromo-3-(4-(4,5-diphenyl-1-(p-tolyl)-1H-imidazol-2-yl)-1-phenyl-1H-pyrazol-3-yl)-2H-chromen-2-one (3i)] gave an IC50 of 5.83 µM.

In turn, `Cc1cc(C)cc(-n2c(-c3cn(-c4ccccc4)nc3C3=CC4C=C(Br)C=CC4OC3=O)nc(-c3ccccc3)c2-c2ccccc2)c1` (stereo not given) [6-Bromo-3-(4-(1-(3,5-dimethylphenyl)-4,5-diphenyl-1Himidazol-2-yl)-1-phenyl-1H-pyrazol-3-yl)-4a,8a-dihydro-2Hchromen-2-one (3g)] had an IC50 of 5.64 µM.

As to `Cc1cc(C)cc(-n2c(-c3cn(-c4ccccc4)nc3C3=CC4C=CC=CC4OC3=O)nc(-c3ccccc3)c2-c2ccccc2)c1` (stereo not given) [3-(4-(1-(3,5-Dimethylphenyl)-4,5-diphenyl-1H-imidazol-2-yl)-1-phenyl-1H-pyrazol-3-yl)-4a,8a-dihydro-2H-chromen-2-one (3d)], the IC50 worked out at 46.4 µM.

As for `O=c1oc2ccc(Br)cc2cc1-c1nn(-c2ccccc2)cc1-c1nc(-c2ccccc2)c(-c2ccccc2)n1-c1ccc(Br)cc1` [6-Bromo-3-(4-(1-(4-bromophenyl)-4,5-diphenyl-1H-imidazol-2-yl)-1-phenyl-1H-pyrazol-3-yl)-2H-chromen-2-one (3j)], the IC50 stood at 5.21 µM.

For `COc1ccc(-n2c(-c3cn(-c4ccccc4)nc3C3=CC4C=CC=CC4OC3=O)nc(-c3ccccc3)c2-c2ccccc2)cc1` (stereo not given) [3-(4-(1-(4-Methoxyphenyl)-4,5-diphenyl-1H-imidazol-2-yl)-1-phenyl-1H-pyrazol-3-yl)-4a,8a-dihydro-2H-chromen-2-one (3c)], it took 25.4 µM to reach half-maximal inhibition (IC50).

`O=c1oc2ccc(Br)cc2cc1-c1nn(-c2ccccc2)cc1-c1nc(-c2ccccc2)c(-c2ccccc2)n1-c1ccc(Cl)cc1` [6-Bromo-3-(4-(1-(4-chlorophenyl)-4,5-diphenyl-1H-imidazol-2-yl)-1-phenyl-1H-pyrazol-3-yl)-2H-chromen-2-one (3f)] gave an IC50 of 2.53 µM.

In turn, `CCCn1c(-c2cn(-c3ccccc3)nc2C2=CC3C=CC=CC3OC2=O)nc(-c2ccccc2)c1-c1ccccc1` (stereo not given) [3-(4-(4,5-Diphenyl-1-propyl-1H-imidazol-2-yl)-1-phenyl-1Hpyrazol-3-yl)-4a,8a-dihydro-2H-chromen-2-one (3e)] returned a concentration for half-maximal inhibition (IC50) of 44.8 µM.

`COc1ccc(-n2c(-c3cn(-c4ccccc4)nc3-c3cc4cc(Br)ccc4oc3=O)nc(-c3ccccc3)c2-c2ccccc2)cc1` [6-Bromo-3-(4-(1-(4-methoxyphenyl)-4,5-diphenyl-1Himidazol-2-yl)-1-phenyl-1H-pyrazol-3-yl)-2H-chromen-2-one (3h)] came in with an IC50 of 9.27 µM.
